Measured values taken from patent publication EP4768499A1, “MACROCYCLIC PEPTIDE COMPOUND HAVING CELL MEMBRANE PERMEABILITY AND METABOLIC STABILITY, AND LIBRARY CONTAINING SAME” (Chugai Seiyaku Kabushiki Kaisha, priority 2023, dated 2025).
Read-outs that look alike come from different tables or passages of the source. Starred links: 1 amine or outer side, 2 acyl side, 3 side chain; linkers in the order of their positions; H or OH if unused. Positions of bridges follow the written chain, without caps; N, C: chain ends. Non-standard residues stand in square brackets, D forms with d. Residues, ends and D or L forms follow the SMILES beside them. *: point of attachment. NMedβ3hAla = C[C@H](CC(=O)[*:2])N(C)[*:1]; NMeF = CN[C@@H](Cc1ccccc1)C(=O)O; NMeGABA = CN(CCCC(=O)[*:2])[*:1]; NMeI = CC[C@H](C)[C@H](NC)C(=O)O; NMeT = CN[C@H](C(=O)O)[C@@H](C)O; hPhe = N[C@@H](CCc1ccccc1)C(=O)O; NMeβAla = CN(CCC(=O)[*:2])[*:1]; NMeD = CN[C@@H](CC(=O)O)C(=O)O; NMeL = CN[C@@H](CC(C)C)C(=O)O; NMeV = CN[C@H](C(=O)O)C(C)C; NMeAbu = CC[C@H](NC)C(=O)O; NMeA = CN[C@@H](C)C(=O)O; Piperidide = C1CCN(*)CC1; Abu = CC[C@H](N)C(=O)O; NBuGly = CCCCNCC(=O)O; βAla = NCCC(=O)O; Sar = CNCC(=O)O; tBu = CC(C)(C)*

Tests used:
[1] = Metabolic stability test: liver microsomal stability assay; format: in vitro ADME, mouse; conditions: for microsomal CLint at 1 µM: male, pH 7.4, presence of NADPH, read-out: Mouse Hepatic Microsome CLh,int NADPH(+)
[2] = Membrane permeability test using Caco-2 cells with preincubation; format: in vitro ADME; conditions: Caco-2
Caco-2 cells = test: as above; format: in vitro ADME
[3] = mouse liver microsomes 0.5 mg protein/mL, compound 1 µM
[4] = mouse liver microsomes 0.5 mg protein/mL, compound 1 µM, absence of NADPH
[5] = preincubation 20 to 24 hours, Apical FaSSIF/HBSS pH 6.0, Basal HBSS 4% BSA pH 7.4, 180 minutes, read-out: Caco2 Papp
[6] = Caco-2 cells, preincubation 20 to 24 hours, apical FaSSIF/HBSS 1% DMSO pH 6.0, basal HBSS 4% BSA pH 7.4, basal sample at 180 minutes

Structure (SMILES)	microsomal CLint at 1 µM [1, 3] [µL/min/mg]	Mouse Hepatic Microsome CLh,int NADPH(-) [1, 4] [µL/min/mg Protein]	Papp A→B [2, 5] [×10⁻⁶ cm/s]	Caco2 Papp (10^-6 cm/sec) (Caco-2 cells; [6])	Mouse Hepatic Microsome CLh,int NADPH(-) [1] [µL/min/mg Protein]	Papp A→B [2] [×10⁻⁶ cm/s]	Caco2 Papp (10^-6 cm/sec) (Caco-2 cells; Caco-2)
CC[C@@H]1NC(=O)[C@H](C(C)C)NC(=O)[C@H]([C@@H](C)CC)N(C)C(=O)[C@H](CCc2ccccc2)NC(=O)[C@H](Cc2ccccc2)N(C)C(=O)[C@H]([C@@H](C)CC)NC(=O)[C@H](CC(C)C)N(C)C(=O)[C@H](CC(C)C)NC(=O)CCN(C)C(=O)C[C@@H](C)N(C)C(=O)[C@H](CC(C)C)N(C)C(=O)CNC(=O)[C@@H]2CCCN2C(=O)[C@H](CC(C)C)N(C)C1=O [pd064] (cyclo([Abu][NMeL]PG[NMeL][NMedβ3hAla][NMeβAla]L[NMeL]I[NMeF][hPhe][NMeI]V))	41.4	43.3	0.04	0.04 10^-6 cm/sec	–	–	–
CCCCN1CC(=O)N[C@@H]([C@@H](C)CC)C(=O)N(C)[C@@H](CC(C)C)C(=O)N[C@H](C(=O)N2CCCCC2)CC(=O)N(C)[C@@H](C)C(=O)N(C)[C@@H](CC(C)C)C(=O)N[C@@H]([C@@H](C)O)C(=O)N(C)[C@@H](Cc2ccccc2)C(=O)N[C@@H](CC)C(=O)N(C)[C@@H](Cc2ccccc2)C(=O)N[C@@H](CC(C)C)C(=O)N(C)[C@@H]([C@@H](C)CC)C(=O)N[C@@H](CC(C)C)C1=O [pd103] ([NMeA][NMeL]T[NMeF][Abu][NMeF]L[NMeI]L[NBuGly]I[NMeL]D-Piperidide; lactam N-13)	25.5	21.3	0.08	0.08 10^-6 cm/sec	–	–	–
CC[C@@H]1NC(=O)[C@H](C)N(C)C(=O)[C@H](CC(C)C)N(C)C(=O)[C@H]([C@@H](C)O)N(C)C(=O)[C@H](CC(C)C)N(C)C(=O)[C@H](C)NC(=O)[C@H](Cc2ccccc2)N(C)C(=O)CN(C)C(=O)C[C@@H](C(=O)N2CCCCC2)NC(=O)[C@H](C(C)C)N(C)C(=O)[C@H](C)NC(=O)[C@@H]2CCCN2C(=O)[C@H](C(C)C)NC(=O)[C@H](Cc2ccccc2)N(C)C1=O [pd046] ([Sar][NMeF]A[NMeL][NMeT][NMeL][NMeA][Abu][NMeF]VPA[NMeV]D-Piperidide; lactam N-14)	6.2	5.4	0.06	0.06 10^-6 cm/sec	–	–	–
CCCCN1CC(=O)N(C)[C@@H](Cc2ccccc2)C(=O)N[C@@H](COC(C)(C)C)C(=O)N(C)[C@@H](CC(C)C)C(=O)NCCC(=O)N(C)[C@@H](C)C(=O)N(C)[C@@H]([C@@H](C)CC)C(=O)N[C@@H](CC(C)C)C(=O)N(C)[C@H](C(=O)N2CCCCC2)CC(=O)N(C)CCC(=O)N(C)[C@@H](CC(C)C)C(=O)N[C@@H]([C@@H](C)CC)C(=O)N(C)[C@@H](Cc2ccccc2)C1=O [pd154] ([NMeβAla][NMeL]I[NMeF][NBuGly][NMeF]S(tBu)[NMeL][βAla][NMeA][NMeI]L[NMeD]-Piperidide; lactam N-13)	41.7	34.3	0.82	0.82 10^-6 cm/sec	–	–	–
CC[C@@H]1NC(=O)[C@H]([C@@H](C)O)NC(=O)[C@H](Cc2ccccc2)N(C)C(=O)[C@H](CC(C)C)N(C)C(=O)[C@H](C(C)C)NC(=O)[C@H]([C@@H](C)CC)N(C)C(=O)[C@H]([C@@H](C)CC)NC(=O)[C@H](CC(C)C)N(C)C(=O)[C@H](C)N(C)C(=O)[C@H](C)NC(=O)C[C@@H](C)N(C)C(=O)[C@H](CC(C)C)N(C)C(=O)[C@H](C)N(C)C(=O)CN(C)C1=O [pd069] (cyclo(A[NMeA][NMeL]I[NMeI]V[NMeL][NMeF]T[Abu][Sar][NMeA][NMeL][NMedβ3hAla]))	16.5	20.5	< 0.08	<0.08 10^-6 cm/sec	–	–	–
CCCCN1CC(=O)N(C)[C@@H](Cc2ccccc2)C(=O)N[C@@H](COC(C)(C)C)C(=O)N(C)[C@@H](CC(C)C)C(=O)N(C)[C@@H](CC)C(=O)N(C)[C@@H](C)C(=O)N[C@@H]([C@@H](C)CC)C(=O)N(C)[C@@H](C(C)C)C(=O)N[C@@H](C(C)C)C(=O)N(C)[C@H](C(=O)N2CCCCC2)CC(=O)N(C)CCC(=O)N(C)[C@@H](CC(C)C)C(=O)N[C@@H]([C@@H](C)CC)C(=O)N(C)[C@@H](Cc2ccccc2)C1=O [pd082] ([NMeβAla][NMeL]I[NMeF][NBuGly][NMeF]S(tBu)[NMeL][NMeAbu][NMeA]I[NMeV]V[NMeD]-Piperidide; lactam N-14)	32.6	38.5	0.03	0.03 10^-6 cm/sec	–	–	–
CC[C@H](C)[C@@H]1NC(=O)[C@@H]2CCCN2C(=O)[C@H](C(C)C)N(C)C(=O)[C@H](CC(C)C)N(C)C(=O)C[C@@H](C(=O)N2CCCCC2)N(C)C(=O)[C@H](CC(C)C)NC(=O)[C@H](CC(C)C)N(C)C(=O)[C@H](C)NC(=O)[C@@H]2CCCN2C(=O)[C@H]([C@@H](C)O)NC(=O)[C@H](CC(C)C)N(C)C(=O)CN(C)C(=O)[C@H](Cc2ccccc2)N(C)C1=O [pd164] ([NMeL][NMeV]PI[NMeF][Sar][NMeL]TPA[NMeL]L[NMeD]-Piperidide; lactam N-13)	14.6	10.0	0.06	0.06 10^-6 cm/sec	–	–	–
CC[C@H](C)[C@H]1C(=O)NCCC(=O)N(C)[C@@H](CC(C)C)C(=O)N[C@H](C(=O)N2CCCCC2)CC(=O)N(C)[C@@H](C)C(=O)N[C@@H](CC(C)C)C(=O)N[C@@H]([C@@H](C)O)C(=O)N(C)[C@@H](Cc2ccccc2)C(=O)NCCC(=O)N(C)[C@@H](C(C)C)C(=O)N[C@@H](CC(C)C)C(=O)N(C)[C@@H]([C@@H](C)CC)C(=O)N[C@@H](CCc2ccccc2)C(=O)N(C)CC(=O)N1C [pd024] ([NMeA]LT[NMeF][βAla][NMeV]L[NMeI][hPhe][Sar][NMeI][βAla][NMeL]D-Piperidide; lactam N-14)	–	–	–	–	20.0	0.3	0.30 10^-6 cm/sec
CC[C@H](C)[C@@H]1NC(=O)[C@H](CC(C)C)N(C)C(=O)[C@H](CC(C)C)N(C)C(=O)[C@H](C)N(C)C(=O)C[C@@H](C(=O)N2CCCCC2)N(C)C(=O)[C@H](C)N(C)C(=O)[C@H](CC(C)C)NC(=O)[C@H](C(C)C)N(C)C(=O)[C@H](CC(C)C)N(C)C(=O)CNC(=O)[C@H]([C@@H](C)CC)N(C)C(=O)[C@H](Cc2ccccc2)N(C)C(=O)[C@H](C)NC(=O)[C@H](Cc2ccccc2)N(C)C1=O [pd084] ([NMeA][NMeL][NMeL]I[NMeF]A[NMeF][NMeI]G[NMeL][NMeV]L[NMeA][NMeD]-Piperidide; lactam N-14)	39	37.8	0.21	0.21 10^-6 cm/sec	–	–	–
CC[C@@H]1NC(=O)[C@H]([C@@H](C)O)N(C)C(=O)[C@H](CC(C)C)N(C)C(=O)[C@H]([C@@H](C)CC)NC(=O)[C@H](Cc2ccccc2)N(C)C(=O)CN(C)C(=O)C[C@@H](C(=O)N2CCCCC2)NC(=O)[C@H](C(C)C)N(C)C(=O)[C@H](CC)NC(=O)[C@H](COC(C)(C)C)NC(=O)[C@H](C)N(C)C(=O)[C@H](CC)NC(=O)[C@H](CC(C)C)N(C)C(=O)[C@H](CCc2ccccc2)NC1=O [pd028] ([Sar][NMeF]I[NMeL][NMeT][Abu][hPhe][NMeL][Abu][NMeA]S(tBu)[Abu][NMeV]D-Piperidide; lactam N-14)	37.2	22.1	0.03	0.03 10^-6 cm/sec	–	–	–
CC[C@H]1C(=O)N(C)CC(=O)N(C)[C@@H](CC(C)C)C(=O)N[C@@H](COC(C)(C)C)C(=O)N(C)[C@@H](C)C(=O)N(C)[C@@H](Cc2ccccc2)C(=O)N(C)CC(=O)N(C)[C@H](C(=O)N2CCCCC2)CC(=O)N[C@H](C(C)C)C(=O)N(C)[C@@H](Cc2ccccc2)C(=O)NCCC(=O)N(C)[C@@H](C(C)C)C(=O)N[C@@H]([C@@H](C)O)C(=O)N(C)[C@@H](CC(C)C)C(=O)N1C [pd094] ([dV][NMeF][βAla][NMeV]T[NMeL][NMeAbu][Sar][NMeL]S(tBu)[NMeA][NMeF][Sar][NMeD]-Piperidide; lactam N-14)	22.5	16.7	< 0.13	<0.13 10^-6 cm/sec	–	–	–
CC[C@H](C)[C@@H]1NC(=O)[C@H](C)NC(=O)[C@H](CC(C)C)N(C)C(=O)[C@H](COC(C)(C)C)NC(=O)[C@H](CC(C)C)N(C)C(=O)[C@@H]2CCCN2C(=O)[C@H](Cc2ccccc2)NC(=O)CCN(C)C(=O)[C@H](CC(C)C)N(C)C(=O)CCCN(C)C(=O)C[C@@H](C(=O)N2CCCCC2)NC(=O)[C@H](Cc2ccccc2)N(C)C(=O)[C@H](CC(C)C)NC(=O)[C@H](CC)N(C)C1=O [pd017] ([NMeGABA][NMeL][NMeβAla]FP[NMeL]S(tBu)[NMeL]AI[NMeAbu]L[NMeF]D-Piperidide; lactam N-14)	39.4	40.1	0.09	0.09 10^-6 cm/sec	–	–	–
CC(C)C[C@@H]1NC(=O)[C@H](Cc2ccccc2)N(C)C(=O)[C@H](C)N(C)C(=O)[C@H](CC(C)C)N(C)C(=O)CN(C)C(=O)[C@H](C(C)C)N(C)C(=O)[C@H](CC(C)C)N(C)C(=O)[C@H](C(C)C)N(C)C(=O)[C@H](C(C)C)NC(=O)[C@H](CC(C)C)N(C)C(=O)[C@@H](C(C)C)NC(=O)C[C@@H](C(=O)N2CCCCC2)N(C)C(=O)[C@H](C)N(C)C1=O [pd157] ([dV][NMeL]V[NMeV][NMeL][NMeV][Sar][NMeL][NMeA][NMeF]L[NMeA][NMeD]-Piperidide; lactam N-13)	31.7	24.9	1.42	1.42 10^-6 cm/sec	–	–	–
